Results reported in US20240336577A1, “PYRAZINE COMPOUND, AND METHOD OF PREPARATION AND USE THEREOF” (SHENZHEN OLIVE BIOPHARMACEUTICALS CO., LTD, priority 2020, published 2024).

Columns and labels:
[1] = system: 6-OHDA Parkinson's disease rats; assay: APO-induced rotations in 6-OHDA Parkinson's disease rats; assay type: in vivo; conditions: APO-induced 6-OHDA rats, 2 weeks of treatment; different dosages of OLB-1, OLB-2; levodopa 25 mg/kg; FIG. 8
Excerpt: There is no rotation in a sham-operated group, and there is no significant difference between the groups injected with 6-OHDA, and there are about 180 rotations. […] Data were presented as mean±SEM; n=9-10 per group. One-way ANOVA and multiple range test were adopted to show differences between the two groups. *p<0.05, **p<0.01 vs. before 6-OHDA group.

db/db mice [2] = assay: Biochemical and metabolic indicators in db/db mice, 90 d administration; assay type: in vivo; conditions: once/d 90 d, Losartan 15 mg/kg/d, TMP 5.0 mg/kg, OLB-1 2.31 mg/kg, OLB-2 2.3 mg/kg, mean±SEM, n=6
db/db mice [3] = assay: Glucose and lipid metabolism in db/db mice, 56 d administration; assay type: in vivo; conditions: once/d 56 d, TMP 5.0 mg/kg, mean±SEM, n=6; for Creatinine / Total cholesterol / Triglyceride / Urea: Losartan 10 mg/kg; for Creatinine / Total cholesterol / Triglyceride / Urea / Glucose determination / High-density lipoprotein cholesterol / Low-density lipoprotein cholesterol: OLB-1/OLB-2 13.32 mg/kg; for Glycated hemoglobin / Glucose determination / High-density lipoprotein cholesterol / Low-density lipoprotein cholesterol: metformin 225 mg/kg/d; for Glycated hemoglobin: OLB-1/OLB-2 13.32 mg/kg (0.037 mmol/kg)
Description: Mice of a normal control group and model mice were given normal saline 10 ml/kg/d, metformin hydrochloride enteric-coated tablets 225 mg/kg/d, Losartan 10 mg/kg, TMP (5.0 mg/kg, 0.037 mmol/kg), and OLB-1 and OLB-2 (13.32 mg/kg, 0.037 mmol/kg), at a volume of 10 mL/kg, once/d, for continuous administration of 56 d, blood lipids and blood glucose related indexes were measured after blood collection. Data were presented as mean±SEM; n=6 per group. One-way ANOVA and multiple range test were adopted to show differences between the two groups. a, p<0.05 vs. db/db group; c, p<0.001 vs. db/db group.

[4] = system: SH—SY5Y neuroblastoma cells; assay: LPS-induced inflammatory factors and oxidative stress-related proteins, ELISA kit; assay type: cell-based; conditions: 1 μg/mL LPS 24 h, mean±SEM, n=8; for TNF-alpha: differentiated SH-SY5Y, supernatant
Description: The SH—SY5Y cells were recovered and cultured, and the cells in the logarithmic growth phase were taken. After 24 h of incubation, SH—SY5Y neuroblastoma cells were treated with 1 μM all-trans retinoic acid to induce differentiation, and then inoculated into a 6-well culture dish for 24 h of incubation. The medium was treated with chemicals feed at 0.2 μM (L) or 1 μM (H) and 1 μg/mL LPS for 24 h, a supernatant medium was aspirated, and changes of inflammatory factors and oxidative stress-related proteins were measured by an ELISA kit. Data were presented as mean±SEM; n=8 per group. One-way ANOVA and multiple range test were adopted to show differences between the two groups. a, p<0.05 vs. LPS group; b, p<0.01 vs. LPS group; c, p<0.001 vs. LPS group.

[5] = system: ALS (SOD-G93A) transgenic mice; assay: Limb grip force test in ALS transgenic mice; assay type: in vivo; conditions: different dosages of OLB-1, OLB-2, riluzole 5 mg/kg, FIG. 7
Description: The limb grip force test is used directly to assess muscle strength in mice. […] After the start of administration, the grip force of the mice was tested every two weeks, and the measurement was repeated three times for each mouse, and the maximum among the three results was taken as a maximum grip force of the mice. […] Data were presented as mean±SEM; n=10 per group. One-way ANOVA and multiple range test show differences between the two groups. **p<0.01, ***p<0.001 vs. WT (normal control) group; #p<0.05, ##p<0.01 vs. ALS (SOD-G93A) group.

[6] = system: ALS (SOD-G93A) transgenic mice; assay: Pole climbing test in ALS transgenic mice; assay type: in vivo; conditions: different dosages of OLB-1, OLB-2, riluzole 5 mg/kg, FIG. 6
Excerpt: The pole climbing test is generally used to evaluate a motor coordination ability and motor delay of the limbs in mice. A homemade wooden pole about 50 cm long and about 1 cm in diameter was wrapped with medical gauze to increase friction of the wooden pole. The wooden pole was put vertically on a horizontal table, the mouse tail was grabbed such that the mouse head was facing down, with limbs grabbing a top of the pole; after releasing the mouse tail, timing was started, and it was ensured that the mouse crawled downward without external force, and the time was recorded for the mouse to climb from the top of the pole to a bottom platform (a standard was that mouse hind limbs were landed on the ground). […] An average of the three pole climbing times of mice was calculated as a final pole climbing time. […] Data were presented as mean±SEM; n=10 per group. One-way ANOVA and multiple range test were adopted to show differences between the two groups. ***p<0.001 vs. WT (normal control) group; #p<0.05, ##p<0.01 vs. ALS (SOD-G93A) group.

| Structure (SMILES) | Creatinine (db/db mice [2]) | Urea (db/db mice [2]) | Urine albumin/creatinine (db/db mice [2]) | Creatinine (db/db mice [3]) | Total cholesterol (db/db mice [3]) | Triglyceride (db/db mice [3]) | Urea (db/db mice [3]) | Glycated hemoglobin (db/db mice [3]) | Glucose determination (db/db mice [3]) | High-density lipoprotein cholesterol (db/db mice [3]) | Low-density lipoprotein cholesterol (db/db mice [3]) | also measured |
| --- | --- | --- | --- | --- | --- | --- | --- | --- | --- | --- | --- | --- |
| N[C@@H](Cc1ccc(O)c(O)c1)C(=O)O [levodopa, reference compound] |  |  |  |  |  |  |  |  |  |  |  | number of rotations [1]: effectively reduce the number of rotations |
| Cc1nc(C)c(C)nc1C [TMP, tetramethylpyrazine, reference compound] | 52.5 ± 3.76 µmol/L | 11.55 ± 0.59 ^ mmol/L | 687.35 ± 79.04 ^ mg/g | 52.5 ± 3.76 µmol/L | 10.96 ± 1.38 ^ mM | 12.83 ± 1.37 ^ mg/dL | 11.55 ± 0.59 ^ mmol/L | 917.31 ± 57.43 ^ nmol/L | 37.94 ± 3.11 ^ mM | 2.49 ± 0.16 ^ mM | 0.68 ± 0.04 ^ mM | GSH-Px ([4]; compound 0.2 μM (L)): 5.96 ± 0.74 µmol/mg; IL1 ([4]; compound 0.2 μM (L)): 13.26 ± 1.31 pg/mL; IL6 ([4]; compound 0.2 μM (L)): 14.12 ± 1.46 pg/mL; MDA ([4]; compound 0.2 μM (L)): 23.34 ± 1.71 nmol/mg; SOD ([4]; compound 0.2 μM (L)): 9.57 ± 0.61 nU/ml; GSH-Px ([4]; compound 1 μM (H)): 6.90 ± 0.87 µmol/mg; IL1 ([4]; compound 1 μM (H)): 13.53 ± 1.74 pg/mL; IL6 ([4]; compound 1 μM (H)): 12.69 ± 1.85 pg/mL; MDA ([4]; compound 1 μM (H)): 22.94 ± 1.33 nmol/mg; SOD ([4]; compound 1 μM (H)): 8.93 ± 0.47 nU/ml; TNF-alpha ([4]; compound 0.2 μM (L)): 12.22 ± 1.28 pg/mL; TNF-alpha ([4]; compound 1 μM (H)): 12.64 ± 1.70 pg/mL |
| CN(C)C(=N)N=C(N)N [metformin, reference compound] |  |  |  |  |  |  |  | 628.52 ± 50.59(c) nmol/L | 24.01 ± 2.38(c) mM | 2.19 ± 0.12(a) mM | 0.59 ± 0.02(c) mM |  |
| CCCCc1nc(Cl)c(CO)n1Cc1ccc(-c2ccccc2-c2nn[nH]n2)cc1 [Losartan, reference compound] | 42.12 ± 1.72(c) μmol/L | 7.23 ± 0.51(c) mmol/L | 522.59 ± 103.42(c) mg/g | 42.12 ± 1.72(c) μmol/L | 6.76 ± 0.46(c) mM | 9.68 ± 0.37(c) mg/dL | 7.23 ± 0.51(c) mmol/L |  |  |  |  |  |
| Nc1nc2ccc(OC(F)(F)F)cc2s1 [riluzole, reference compound] |  |  |  |  |  |  |  |  |  |  |  | limb grip force [5]: effectively increase the limb force; pole climbing time / symptoms of bradykinesia [6]: significantly improve the symptoms of bradykinesia |
